Common to all, as to type: biochemical
In test [1] the target is T1, Recombinant human Tyro3 (455-end) (Homo sapiens, UniProt Q06418).
T1 construct: GST (N); made in house; host or cells: Sf9 insect cells (baculovirus)
T1 sequence (Q06418 455-890 limits assumed): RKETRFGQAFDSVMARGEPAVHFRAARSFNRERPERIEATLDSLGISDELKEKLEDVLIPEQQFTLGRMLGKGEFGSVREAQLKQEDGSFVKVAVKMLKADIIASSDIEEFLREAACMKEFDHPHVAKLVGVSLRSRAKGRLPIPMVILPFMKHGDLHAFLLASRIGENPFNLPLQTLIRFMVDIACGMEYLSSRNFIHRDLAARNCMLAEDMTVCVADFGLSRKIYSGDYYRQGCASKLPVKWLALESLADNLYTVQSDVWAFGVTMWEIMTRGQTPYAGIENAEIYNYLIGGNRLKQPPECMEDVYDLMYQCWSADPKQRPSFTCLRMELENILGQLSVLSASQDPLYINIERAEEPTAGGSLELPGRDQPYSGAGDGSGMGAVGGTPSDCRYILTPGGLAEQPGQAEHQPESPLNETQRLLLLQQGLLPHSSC
The test is described as follows: Kinase enzymatic activity assay ([33P]-ATP phosphate transfer), Tyro3. Conditions: inhibitory activity on Tyro3; class symbols. The gist of the method: (§1)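 Kinases were N-terminal GST-tagged constructs expressed in Sf9 cells, with poly(Glu:Tyr 4:1) as substrate. Reactions ran in MOPS buffer pH 7.2 with MgCl2 and [33P]-ATP (250 μM cocktail stock) for 30 min at room temperature. Filter-bound radioactivity gave % inhibition, and IC50 was taken from serial dilutions.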

The target of the next test is T2, human Axl (473-end) (Homo sapiens, UniProt P30530).
T2 construct: GST (N); made in house; host or cells: Sf9 insect cells (baculovirus)
T2 sequence (P30530 473-894 limits assumed): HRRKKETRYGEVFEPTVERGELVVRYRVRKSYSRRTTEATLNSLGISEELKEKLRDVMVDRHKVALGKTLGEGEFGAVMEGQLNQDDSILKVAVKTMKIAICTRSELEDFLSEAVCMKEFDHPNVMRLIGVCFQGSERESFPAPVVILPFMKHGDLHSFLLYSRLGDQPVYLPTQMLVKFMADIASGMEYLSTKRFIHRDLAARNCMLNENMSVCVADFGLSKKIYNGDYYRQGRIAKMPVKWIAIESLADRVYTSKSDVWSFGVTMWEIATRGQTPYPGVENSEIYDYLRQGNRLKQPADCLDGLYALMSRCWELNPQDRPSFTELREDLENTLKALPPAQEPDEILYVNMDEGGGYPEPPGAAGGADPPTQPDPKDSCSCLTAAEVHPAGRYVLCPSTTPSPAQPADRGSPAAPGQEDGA
The test is described as follows: Kinase enzymatic activity assay ([33P]-ATP phosphate transfer), Axl. The conditions noted are these: inhibitory activity on Axl; class symbols. The gist of the method: as §1

For a further test, the target named is T3, human Mer (578-872) (Homo sapiens, UniProt Q12866).
T3 construct: GST (N); made in house; host or cells: Sf9 insect cells (baculovirus)
T3 sequence (Q12866 578-872): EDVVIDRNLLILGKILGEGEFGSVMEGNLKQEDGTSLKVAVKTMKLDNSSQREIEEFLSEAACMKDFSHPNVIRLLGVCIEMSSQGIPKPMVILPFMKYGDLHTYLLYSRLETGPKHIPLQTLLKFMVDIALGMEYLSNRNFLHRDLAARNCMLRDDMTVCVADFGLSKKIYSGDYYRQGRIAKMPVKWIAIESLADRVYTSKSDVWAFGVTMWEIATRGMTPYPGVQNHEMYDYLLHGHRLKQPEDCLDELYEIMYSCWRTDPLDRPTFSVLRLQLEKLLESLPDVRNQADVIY
The test is described as follows: Kinase enzymatic activity assay ([33P]-ATP phosphate transfer), Mer. Conditions: inhibitory activity on Mer; class symbols. A digest of the protocol:
as §1

Turning to `CC(=O)N1CCC(n2cc(-c3cnc(N)c(-c4ncc(-c5cccc(Cl)c5)o4)c3)cn2)CC1` [1-(4-(4-(6-amino-5-(5-(3-chlorophenyl)oxazol-2-yl)pyridin-3-yl)-1H-pyrazol-1-yl)piperidin-1-yl)ethanone], the IC50 (in test [1]; on human Axl (473-end); on human Mer (578-872)) was < 500 nM throughout.
For the molecule `Nc1ncc(-c2cn[nH]c2)cc1-c1nnc(-c2ccc(F)cc2)o1` [3-(5-(4-fluorophenyl)-1,3,4-oxadiazol-2-yl)-5-(1H-pyrazol-4-yl)pyridin-2-amine], the IC50 (commonly the midpoint of a concentration-inhibition curve) in test [1] was < 500 nM; against human Axl (473-end), < 500 nM; against human Mer (578-872), 500 to 1000 nM.
Regarding `Nc1ncc(-c2cnn(C3CCNCC3)c2)cc1-c1ccc(-c2ccccc2)o1` [3-(5-phenylfuran-2-yl)-5-(1-(piperidin-4-yl)-1H-pyrazol-4-yl)pyridin-2-amine], the IC50 in test [1] is < 500 nM; against human Axl (473-end), < 500 nM; at human Mer (578-872) it was 500 to 1000 nM.
Consider `Nc1ncc(-c2cn[nH]c2)cc1-c1nnc(-c2cc(F)ccc2F)o1` [3-(5-(2,5-difluorophenyl)-1,3,4-oxadiazol-2-yl)-5-(1H-pyrazol-4-yl)pyridin-2-amine], for which the values for the half-inhibitory concentration (IC50) (in test [1]; against human Axl (473-end); against human Mer (578-872)) were < 500 nM, < 500 nM and 1000 to 10000 nM, respectively.
Regarding `Nc1ncc(-c2cnn(C3CCNCC3)c2)cc1-c1nnc(CC2CC2)o1` [3-(5-(cyclopropylmethyl)-1,3,4-oxadiazol-2-yl)-5-(1-(piperidin-4-yl)-1H-pyrazol-4-yl)pyridin-2-amine], the IC50 (in test [1]; against human Axl (473-end); at human Mer (578-872)) was < 500 nM each time.
On to `Nc1ncc(-c2cnn(C3CCCCC3)c2)cc1-c1ncc(-c2cccc(Cl)c2)o1` [3-(5-(3-chlorophenyl)oxazol-2-yl)-5-(1-cyclohexyl-1H-pyrazol-4-yl)pyridin-2-amine], for which the IC50 (in test [1]; on human Axl (473-end); against human Mer (578-872)) was 1000 to 10000 nM in each case.
Turning to `Nc1ncc(-c2cnn(C3CCNCC3)c2)cc1-c1noc(-c2ccccc2)n1` [3-(5-phenyl-1,2,4-oxadiazol-3-yl)-5-(1-(piperidin-4-yl)-1H-pyrazol-4-yl)pyridin-2-amine], the IC50 (in test [1]; against human Axl (473-end); at human Mer (578-872)) was < 500 nM each time.
As to `Nc1ncc(-c2cnn(C3CCNCC3)c2)cc1-c1nnc(-c2ccccc2)o1` [3-(5-phenyl-1,3,4-oxadiazol-2-yl)-5-(1-(piperidin-4-yl)-1H-pyrazol-4-yl)pyridin-2-amine], the IC50 (in test [1]; against human Axl (473-end); against human Mer (578-872)) was < 500 nM each time.
As for `Nc1ncc(-c2cnn(C3CCOCC3)c2)cc1-c1nc(-c2ccccc2)no1` [3-(3-phenyl-1,2,4-oxadiazol-5-yl)-5-(1-(tetrahydro-2H-pyran-4-yl)-1H-pyrazol-4-yl)pyridin-2-amine], the IC50 (in test [1]; against human Axl (473-end); on human Mer (578-872)) was > 10000 nM throughout.
Consider `CCCCCCCCCCCCN1CCC(n2cc(-c3cnc(N)c(-c4ncc(-c5ccccc5)o4)c3)cn2)CC1`, for which the concentration for half-maximal inhibition (IC50) is < 500 nM in test [1], < 500 nM at human Axl (473-end) and 500 to 1000 nM against human Mer (578-872).
As to `Nc1ncc(-c2cnn(C3CCN(C(=O)Cc4ccccc4)CC3)c2)cc1-c1nnc(-c2c(Cl)cccc2Cl)o1` [1-(4-(4-(6-amino-5-(5-(2,6-dichlorophenyl)-1,3,4-oxadiazol-2-yl)pyridin-3-yl)-1H-pyrazol-1-yl)piperidin-1-yl)-2-phenylethanone], the IC50 (in test [1]; at human Axl (473-end); on human Mer (578-872)) was 1000 to 10000 nM each time.
`Nc1ncc(-c2cnn(C3CCNCC3)c2)cc1-c1nnc(-c2ccc(F)cc2)o1` [3-(5-(4-fluorophenyl)-1,3,4-oxadiazol-2-yl)-5-(1-(piperidin-4-yl)-1H-pyrazol-4-yl)pyridin-2-amine]: the IC50 (in test [1]; against human Axl (473-end); at human Mer (578-872)) was < 500 nM in each case.
Take `Nc1ncc(-c2cnn(C3CCN(C(=O)c4ccccc4)CC3)c2)cc1-c1ncc(-c2cccc(Cl)c2)o1`: the IC50 was < 500 nM in test [1], < 500 nM against human Axl (473-end) and 1000 to 10000 nM against human Mer (578-872).
For the molecule `CCN1CCC(n2cc(-c3cnc(N)c(-c4ncc(-c5ccccc5)o4)c3)cn2)CC1` [5-(1-(1-ethylpiperidin-4-yl)-1H-pyrazol-4-yl)-3-(5-phenyloxazol-2-yl)pyridin-2-amine], the IC50 (in test [1]; at human Axl (473-end); against human Mer (578-872)) was < 500 nM throughout.
Consider `CC(C)(C)OC(=O)N1CCC(n2cc(-c3cnc(N)c(-c4nnc(CC5CC5)o4)c3)cn2)CC1` [tert-butyl 4-(4-(6-amino-5-(5-(cyclopropylmethyl)-1,3,4-oxadiazol-2-yl)pyridin-3-yl)-1H-pyrazol-1-yl)piperidine-1-carboxylate], for which the IC50 in test [1] is 1000 to 10000 nM; on human Axl (473-end) it was < 500 nM; against human Mer (578-872), 500 to 1000 nM.
Taken in the same sequence, the figures for `Nc1ncc(-c2cn[nH]c2)cc1-c1nnc(-c2c(Cl)cccc2Cl)o1` [3-(5-(2,6-dichlorophenyl)-1,3,4-oxadiazol-2-yl)-5-(1H-pyrazol-4-yl)pyridin-2-amine] were < 500 nM, < 500 nM and < 500 nM.
`Nc1ncc(-c2cnn(C3CCOCC3)c2)cc1-c1ncc(-c2ccccc2)o1` [3-(5-phenyloxazol-2-yl)-5-(1-(tetrahydro-2H-pyran-4-yl)-1H-pyrazol-4-yl)pyridin-2-amine]: the IC50 in test [1] was < 500 nM; at human Axl (473-end), < 500 nM; on human Mer (578-872), > 10000 nM.
`Nc1ncc(-c2ccn(C3CCNCC3)c2)cc1-c1nnc(-c2c(Cl)cccc2Cl)o1` [3-(5-(2,6-dichlorophenyl)-1,3,4-oxadiazol-2-yl)-5-(1-(piperidin-4-yl)-1H-pyrrol-3-yl)pyridin-2-amine]: the IC50 (in test [1]; against human Axl (473-end); at human Mer (578-872)) was < 500 nM throughout.
For the molecule `CCN1CCC(n2cc(-c3cnc(N)c(-c4nc(-c5c(Cl)cccc5Cl)no4)c3)cn2)CC1` [3-(3-(2,6-dichlorophenyl)-1,2,4-oxadiazol-5-yl)-5-(1-(1-ethylpiperidin-4-yl)-1H-pyrazol-4-yl)pyridin-2-amine], the 50% inhibitory concentration (IC50) (in test [1]; on human Axl (473-end); on human Mer (578-872)) was < 500 nM throughout.
As to `Nc1ncc(-c2cnn(C3CCNCC3)c2)cc1-c1nnc(-c2c(Cl)ccc(F)c2Cl)o1` [3-(5-(2,6-dichloro-3-fluorophenyl)-1,3,4-oxadiazol-2-yl)-5-(1-(piperidin-4-yl)-1H-pyrazol-4-yl)pyridin-2-amine], the IC50 (in test [1]; at human Axl (473-end); at human Mer (578-872)) was < 500 nM throughout.
As to `CC(C)(C)c1ccc(-c2nnc(-c3cc(-c4cn[nH]c4)cnc3N)o2)cc1` [3-(5-(4-(tert-butyl)phenyl)-1,3,4-oxadiazol-2-yl)-5-(1H-pyrazol-4-yl)pyridin-2-amine], the IC50 was > 10000 nM in test [1], 1000 to 10000 nM against human Axl (473-end) and > 10000 nM against human Mer (578-872).
As for `CC(C)CCC(=O)N1CCC(n2cc(-c3cnc(N)c(-c4nnc(-c5c(Cl)cccc5Cl)o4)c3)cn2)CC1` [1-(4-(4-(6-amino-5-(5-(2,6-dichlorophenyl)-1,3,4-oxadiazol-2-yl)pyridin-3-yl)-1H-pyrazol-1-yl)piperidin-1-yl)-4-methylpentan-1-one], the IC50 is 500 to 1000 nM in test [1], < 500 nM against human Axl (473-end) and < 500 nM against human Mer (578-872).
With `Nc1ncc(-c2cnn(C3CCNCC3)c2)cc1-c1nnc(C2CCCCC2)o1`, the IC50 (in test [1]; against human Axl (473-end); against human Mer (578-872)) was < 500 nM each time.
`Nc1ncc(-c2cnn(C3CCNCC3)c2)cc1-c1noc(-c2cc(Cl)ccc2Cl)n1` [3-(5-(2,5-dichlorophenyl)-1,2,4-oxadiazol-3-yl)-5-(1-(piperidin-4-yl)-1H-pyrazol-4-yl)pyridin-2-amine]: the half-inhibitory concentration (IC50) in test [1] is < 500 nM; against human Axl (473-end), < 500 nM; against human Mer (578-872), 500 to 1000 nM.

The values above are taken from patent US11034685B2, “Aminopyridine derivatives as TAM family kinase inhibitors” (SignalChem Lifesciences Corporation, priority 2013, dated 2021).
